The structures appear in SMILES notation.

T1 sequence (Q08499 1-745 isoform Q08499-6): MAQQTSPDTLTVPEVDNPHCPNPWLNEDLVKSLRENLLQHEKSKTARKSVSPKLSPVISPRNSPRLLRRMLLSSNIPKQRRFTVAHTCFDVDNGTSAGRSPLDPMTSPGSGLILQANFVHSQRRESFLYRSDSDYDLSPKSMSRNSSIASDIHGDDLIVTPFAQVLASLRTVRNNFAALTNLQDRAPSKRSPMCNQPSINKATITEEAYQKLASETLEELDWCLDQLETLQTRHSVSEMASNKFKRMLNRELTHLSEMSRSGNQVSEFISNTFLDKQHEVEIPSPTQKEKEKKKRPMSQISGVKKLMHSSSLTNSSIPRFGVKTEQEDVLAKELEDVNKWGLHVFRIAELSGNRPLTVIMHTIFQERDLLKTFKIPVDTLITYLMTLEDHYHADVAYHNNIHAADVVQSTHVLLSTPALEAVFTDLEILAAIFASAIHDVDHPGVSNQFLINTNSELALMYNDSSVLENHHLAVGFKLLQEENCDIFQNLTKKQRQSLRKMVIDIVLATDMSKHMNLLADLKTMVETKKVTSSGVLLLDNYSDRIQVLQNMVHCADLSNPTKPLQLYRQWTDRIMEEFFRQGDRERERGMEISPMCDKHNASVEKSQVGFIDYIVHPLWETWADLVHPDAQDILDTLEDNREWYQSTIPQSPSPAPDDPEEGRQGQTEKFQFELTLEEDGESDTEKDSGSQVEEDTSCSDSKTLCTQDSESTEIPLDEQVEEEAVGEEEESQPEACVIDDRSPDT

The first assay addresses T1, PDE4D5 (Homo sapiens, UniProt Q08499).
T1 construct: stably expressed the full-length human PDE4D5, PDE4B1 and PDE4A4 long isoforms; made in house
The assay is described as follows: PDE assay, [3H]cAMP hydrolysis by HEK-PDE4D5 cell lysate cytosol fraction. Type of assay: biochemical. The settings on record: 30 μM; mean % increase in counts over basal activity. How it is done: HEK 293 cells were transfected with pDEST™ PDE4 expression vectors using Lipofectamine LTX/Plus reagent (Invitrogen) as outlined by the manufacturer and clonal isolates expanded to obtain cell lines that stably expressed the full-length human PDE4D5, PDE4B1 and PDE4A4 long isoforms and the full length human PDE4B2 short isoform. These were called the HEK-PDE4D5, HEK-PDE4B1, HEK-PDE4A4 and HEK-PDE4B2 cell lines, respectively.
HEK-PDE4D5 cells were seeded out in 100 mm plates and incubated at 37° C. in an atmosphere of 5% CO2, 95% air. Cell lysates were prepared using KHEM buffer [50 mM KCl, 10 mM EGTA, 50 mM HEPES (pH 7.2), 1.92 mM MgCl2].
To prepare the cell lysates, the 100 mm plates containing the cells were placed on ice and washed with ice-cold PBS (phosphate buffered saline, pH 7.4). KHEM buffer (500 μl) was added to the cells. Cells were then scraped off the plate and triturated using a needle (BD Microlance™ 0.8, 40 mm). The lysed cells were then centrifuged at 2000 rpm for 10 minutes to remove cell debris and the supernatant (cell lysate containing recombinant PDE4D5) was transferred to a fresh tube and kept on ice.
The cell lysate containing recombinant PDE4D5 was transferred into a centrifuge tube and placed into an ultracentrifuge (BECKMAN COULTER) and spun at high speed (100,000 g) for 30 minutes at 4° C. The cytosol fraction was then collected and its protein amount determined using a BCA protein assay.
PDE assays were performed in thin walled V-bottomed 96-well plates. The assays were performed at a final concentration of 10 mM Tris/5 mM MgCl2 plus PDE4D5 cell lysate cytosol fraction, containing over-expressed PDE4D5, with and without test compound. The lysate/compound mix were incubated together for 15 min at room temperature on an orbital shaker prior to addition of [^3H] cAMP (final concentration 1 μM [^3H] cAMP; Perkin Elmer) to a final volume of 50 μl per reaction. The reactions were then incubated for 10 minutes at 30° C., terminated by heating for 2 min at 95° C. and allowed to cool. Snake venom (12.5 μl of 1 mg/ml; Crotalus atrox, Sigma) was then added and the plates were agitated and incubated for a further 15 minutes at 30° C. Dowex ion exchange resin (Sigma, chloride form, 200-400 mesh; 200 μl; prepared as a 1:1 Dowex: water stock, thoroughly re-suspended and diluted 2:1 with ethanol) was then added to each well and the plates incubated for 15 min at room temperature on an orbital shaker ensuring sufficient agitation for resin suspension (550 RPM). The reaction mixture was then transferred to a 96 well filter plate (Millipore; […] pore size) and filtered into a receiving 96-well plate to remove the dowex suspension. 30 μL of the filtered solution was then transferred to the wells of an Opti-plate (Perkin Elmer) 96 well assay plate and 120 μl of Microscint 40 scintillation fluid was added. The plate was then placed on an orbital shaker for 10 min at high speed (900 RPM) to mix the sample with scintillation fluid prior to quantitation using a plate based scintillation counter (Top-Count).
The % increase in counts in the presence of test compound at a particular concentration indicates the % increase in enzyme activity at that concentration.
In turn, `Cn1nc(-c2ccc(Cl)c(F)c2)nc1CC(=O)NCc1cc(Cl)cc(Cl)c1` [Example 18, 2-[3-(4-Chloro-3-fluorophenyl)-1-methyl-1H-1,2,4-triazol-5-yl]-N-[(3,5-dichlorophenyl)methyl]acetamide] returned an activation at 30 µM of 77.8%.

As for `CCn1nc(-c2ccc(Cl)c(F)c2)nc1CC(=O)NCc1ccc2[nH]c(=O)[nH]c2c1` [Example 9, 2-[3-(4-Chloro-3-fluorophenyl)-1-ethyl-1H-1,2,4-triazol-5-yl]-N-[(2-oxo-2,3-dihydro-1H-benzo[d]imidazol-5-yl)methyl]acetamide], the activation at 30 µM is 55.6%.

As for `COc1cccc(CNC(=O)Cc2nc(-c3ccc(Cl)c(F)c3)nn2C)c1` [Example 19, 2-[3-(4-Chloro-3-fluorophenyl)-1-methyl-1H-1,2,4-triazol-5-yl]-N-[(3-methoxyphenyl)methyl]acetamide], the activation at 30 µM was determined as 87.8%.

`CCn1nc(-c2ccc(Cl)c(F)c2)nc1CC(=O)Nc1cnccn1` [Example 8, 2-[3-(4-Chloro-3-fluorophenyl)-1-ethyl-1H-1,2,4-triazol-5-yl]-N-(pyrazin-2-yl)acetamide] came in with an activation at 30 µM of 49.6%.

As for `O=C(Cc1nc(-c2ccc(Cl)c(F)c2)nn1CCO)NCc1cc(Cl)cc(Cl)c1` [Example 23, 2-[3-(4-Chloro-3-fluorophenyl)-1-(2-hydroxyethyl)-1H-1,2,4-triazol-5-yl]-N-[(3,5-dichlorophenyl)methyl]acetamide], the activation at 30 µM came out at 53.8%.

As for `CCn1nc(-c2ccc(C#N)cc2)nc1CC(=O)NCc1cc(Cl)cc(Cl)c1` [Example 30, 2-[3-(4-Cyanophenyl)-1-ethyl-1H-1,2,4-triazol-5-yl]-N-[(3,5-dichlorophenyl)methyl]acetamide], the activation at 30 µM came to 45.9%.

`CCn1nc(-c2ccc(Cl)c(OC(C)C)c2)nc1CC(=O)NCc1cccc(C#N)c1` [Example 37, 2-[3-(4-Chloro-3-isopropyloxyphenyl)-1-ethyl-1H-1,2,4-triazol-5-yl]-N-[(3-cyanophenyl)methyl]acetamide] came in with an activation at 30 µM of 40.2%.

`CCn1nc(-c2ccc(Cl)c(F)c2)nc1C(F)(F)C(=O)NCc1ccc2[nH]c(C)nc2c1` [Example 52, 2-[3-(4-Chloro-3-fluorophenyl)-1-ethyl-1H-1,2,4-triazol-5-yl]-2,2-difluoro-N-[(2-methyl-1H-1,3-benzimidazol-5-yl)methyl]acetamide] showed an activation at 30 µM of 73.8%.

Turning to `CCn1nc(-c2ccc(Cl)c(F)c2)nc1CC(=O)N[C@H]1C[C@H](O)c2ccccc21` [Example 68, 2-[3-(4-Chloro-3-fluorophenyl)-1-ethyl-1H-1,2,4-triazol-5-yl]-N-[(1S,3S)-3-hydroxy-2,3-dihydro-1H-inden-1-yl]acetamide], the activation at 30 µM was 51.3%.

In turn, `CCn1nc(-c2ccc(Cl)c(F)c2)nc1CC(=O)NCc1cc(C)cc(C)c1` [Example 12, 2-[3-(4-Chloro-3-fluorophenyl)-1-ethyl-1H-1,2,4-triazol-5-yl]-N-[(3,5-dimethylphenyl)methyl]acetamide] returned an activation at 30 µM of 71.6%.

On to `CC(C)Oc1cc(-c2nc(CC(=O)N[C@H]3CCOc4ccccc43)n(C)n2)ccc1Cl` [Example 48, 2-[3-(4-Chloro-3-isopropyloxyphenyl)-1-methyl-1H-1,2,4-triazol-5-yl]-N-[(4S)-3,4-dihydro-2H-1-benzopyran-4-yl]acetamide], for which the activation at 30 µM was found to be 45.2%.

The molecule `CCn1nc(-c2ccc(Cl)c(F)c2)nc1CC(=O)NCc1cc(Cl)cc(Cl)c1` [Example 5, 2-[3-(4-Chloro-3-fluorophenyl)-1-ethyl-1H-1,2,4-triazol-5-yl]-N-(3,5-dichlorobenzyl)acetamide] returned an activation at 30 µM of 56.1%.

Regarding `CCn1nc(-c2ccc(Cl)c(F)c2)nc1CC(=O)NCc1cccc2cn[nH]c12` [Example 4, 2-[3-(4-Chloro-3-fluorophenyl)-1-ethyl-1H-1,2,4-triazol-5-yl]-N-[(1H-indazol-7-yl)methyl]acetamide], the activation at 30 µM is 32.2%.

With `Cn1nc(-c2ccc(Cl)c(F)c2)nc1CC(=O)NCc1cccc(F)c1` [Example 20, 2-[3-(4-Chloro-3-fluorophenyl)-1-methyl-1H-1,2,4-triazol-5-yl]-N-[(3-fluorophenyl)methyl]acetamide], the activation at 30 µM was 78.6%.

In the case of `CCn1nc(-c2ccc(OC(F)(F)F)cc2)nc1CC(=O)NCc1cc(Cl)cc(Cl)c1` [Example 28, N-[(3,5-Dichlorophenyl)methyl]-2-{1-ethyl-3-[4-(trifluoromethoxy)phenyl]-1H-1,2,4-triazol-5-yl}acetamide], the activation at 30 µM worked out at 46.3%.

The molecule `CCn1nc(-c2ccc(Cl)c(F)c2)nc1CC(=O)NCc1ccnc(C(F)F)c1` [Example 84, 2-[3-(4-Chloro-3-fluorophenyl)-1-ethyl-1H-1,2,4-triazol-5-yl]-N-{[2-(difluoromethyl)pyridin-4-yl]methyl}acetamide] came in with an activation at 30 µM of 32.2%.

Take `CCn1nc(-c2ccc(Cl)c(F)c2)nc1CC(=O)NCc1ccc(OC)cc1` [Example 16, 2-[3-(4-Chloro-3-fluorophenyl)-1-ethyl-1H-1,2,4-triazol-5-yl]-N-[(4-methoxyphenyl)methyl]acetamide]: the activation at 30 µM amounted to 44.7%.

In turn, `CCn1nc(-c2ccc(Cl)c(F)c2)nc1CC(=O)NCc1cccc(F)c1F` [Example 13, 2-[3-(4-Chloro-3-fluorophenyl)-1-ethyl-1H-1,2,4-triazol-5-yl]-N-[(2,3-difluorophenyl)methyl]acetamide] came in with an activation at 30 µM of 28.4%.

Turning to `CC(C)Oc1cc(-c2nc(CC(=O)NCc3cccc(F)c3)n(C)n2)ccc1Cl` [Example 46, 2-[3-(4-Chloro-3-isopropyloxyphenyl)-1-methyl-1H-1,2,4-triazol-5-yl]-N-[(3-fluorophenyl)methyl]acetamide], the activation at 30 µM was 26.2%.

`CCn1nc(-c2ccc(Cl)c(F)c2)nc1CC(=O)NCc1cc(C)cc(F)c1` [Example 11, 2-[3-(4-Chloro-3-fluorophenyl)-1-ethyl-1H-1,2,4-triazol-5-yl]-N-[(3-fluoro-5-methylphenyl)methyl]acetamide] returned an activation at 30 µM of 52.8%.

In turn, `CCn1nc(-c2ccc(Cl)c(F)c2)nc1CC(=O)NCc1ccc(OC)nc1` [Example 17, 2-[3-(4-Chloro-3-fluorophenyl)-1-ethyl-1H-1,2,4-triazol-5-yl]-N-[(6-methoxypyridin-3-yl)methyl]acetamide] registered an activation at 30 µM of 26.8%.

`CCn1nc(-c2ccc(Cl)c(F)c2)nc1C(F)(F)C(=O)NCc1cc(Cl)cc(Cl)c1` [Example 50, 2-[3-(4-Chloro-3-fluorophenyl)-1-ethyl-1H-1,2,4-triazol-5-yl]-N-[(3,5-dichlorophenyl)methyl]-2,2-difluoroacetamide]: the activation at 30 µM amounted to 36.7%.

As for `CCn1nc(-c2ccc(Cl)c(F)c2)nc1CC(=O)N[C@@H]1c2ccccc2C[C@@H]1O` [Example 62, 2-[3-(4-Chloro-3-fluorophenyl)-1-ethyl-1H-1,2,4-triazol-5-yl]-N-[(1R,2S)-2-hydroxy-2,3-dihydro-1H-inden-1-yl]acetamide], the activation at 30 µM is 49.8%.

For the molecule `CCn1nc(-c2ccc(Cl)c(F)c2)nc1CC(=O)NCc1cc(C)cc(Cl)c1` [Example 10, 2-[3-(4-Chloro-3-fluorophenyl)-1-ethyl-1H-1,2,4-triazol-5-yl]-N-[(3-chloro-5-methylphenyl)methyl]acetamide], the activation at 30 µM was 136%.

As to `CCn1nc(-c2ccc(Cl)c(F)c2)nc1CC(=O)NCc1ccc2[nH]ncc2c1` [Example 7, 2-[3-(4-Chloro-3-fluorophenyl)-1-ethyl-1H-1,2,4-triazol-5-yl]-N-[(1H-indazol-5-yl)methyl]acetamide], the activation at 30 µM is 94.1%.

The molecule `CCn1nc(-c2ccc(Cl)c(F)c2)nc1C(C)C(=O)NCc1cccc(F)c1` (stereo not drawn) [Example 24, 2-[3-(4-Chloro-3-fluorophenyl)-1-ethyl-1H-1,2,4-triazol-5-yl]-N-[(3-fluorophenyl)methyl]propanamide] returned an activation at 30 µM of 72.2%.

Staying with this assay, now noted: dose response, FIG. 1.
Take `CCn1nc(-c2ccc(Cl)c(F)c2)nc1CC(=O)NCc1cc(Cl)cc(Cl)c1` [Example 5, 2-[3-(4-Chloro-3-fluorophenyl)-1-ethyl-1H-1,2,4-triazol-5-yl]-N-(3,5-dichlorobenzyl)acetamide]: the “activation of PDE4 long form PDE4D5 (FIG. 1)” value is “dose-dependent activation”.

For the origin of these results see US11560373B2, “Compounds and their use as PDE4 activators” (Mironid Limited, priority 2018, dated 2023).
